Reference: patent publication US9757356B2 (CHONNAM NATIONAL UNIVERSITY HOSPITAL, priority 2015, dated 2017)

Columns and labels:
MI animal model [1] = test: Echocardiography of cardiac function in MI animal model; type: in vivo, rat; settings: MI rats, 0.2 mg/body weight intra-abdominally daily
Procedure: (§1) To induce the onset of myocardial infarction, first of all, rats weighing 200 to 230 g were anesthetized with ketamine (50 mg/kg) and xylazine (5 mg/kg), and the chests of the rats were shaved and disinfected. An anesthesia ventilator was installed to manage the airway of the rat, and the chest was incised to expose the heart. Then, a cardiac muscle was sutured in a region of the left anterior descending artery (LAD) to block a blood flow, thereby establishing an MI animal model.
(§2) After two weeks, the rats were anesthetized, and subjected to echocardiography to examine the cardiac functions.
In this case, the indices have the following meanings. • IVSd; thickness of interventricular septum (diastole) • IVSs; thickness of interventricular septum (systole) • LVIDd; thickness of left ventricular internal dimension (diastole) • LVIDs; thickness of left ventricular internal dimension (systole) • LVPWd; left ventricle posterior wall thickness (diastole) • LVPWs; left ventricle posterior wall thickness (systole) • EF; ejection fraction • FS; fractional shortening

cardiomyocytes (CMs) = test: BrdU cell proliferation assay, cardiomyocytes in cardiomyocyte/cardiac fibroblast co-culture; type: cell-based, rat; settings: BIO 2.5 μM and 5 μM, after 2 days and 5 days, FIG. 1
Procedure: (§3) Hearts of two-day-old rats were removed and washed with physiological saline. Thereafter, left cardiac muscles were separated from the hearts in a sterilization cabinet, and microtomed into segments. These myocardial tissues were added to a collagenase enzyme solution, reacted at 37° C. while stirring, and then centrifuged to collect only the supernatant which were then kept in a cell culture flask. After an hour, cardiomyocytes which floated when the supernatant was transferred to a new culture flask were separated from cardiac fibroblasts attached to the bottom of the cell culture flask. At this point, both the cardiomyocytes and the cardiac fibroblasts were cultured in a Dulbecco's modified Eagle's medium (DMEM) supplemented with 10% fetal bovine serum (FBS) and then used for experiments.
(§4) After 2 days and 5 days, the proliferation of cells was quantified.
(§5) To determine the level of new DNA synthesis, a cell proliferation assay was performed by adding bromodeoxyuridine (BrdU) to a cell culture broth in advance to incorporate BrdU into DNAs of cells and performing a chromogenic reaction using an anti-BrdU antibody.

MI animal model [2] = test: Myocardial fibrosis by Masson's trichrom staining in MI animal model; type: in vivo, rat; settings: MI rats, MI+BIO vs MI+vehicle, FIG. 4
Procedure: as §1, §2
To quantify myocardial fibrosis, the heart tissues were also removed, fixed with formalin, embedded in a paraffin block, and then microtomed into sections having a thickness of 10 μm. Thereafter, the sections were histologically stained using a Masson's trichrom method.

MI animal model [3] = test: Macrophage phenotype (CD68/Arg1 immunofluorescence) in cardiac muscle of MI animal model; type: in vivo, rat; settings: MI rats, 2nd week after onset of myocardial infarction, FIG. 6
Procedure: Specifically, a slide for myocardial infarction heart tissues was treated with an anti-CD68 antibody and an anti-Arg1 antibody, and a fluorescence image was visualized using a secondary antibody. Then, the tissues were observed under a confocal microscope with a magnification of 800 times. Since the macrophages in the tissues expressed CD68, the macrophages were detected using the anti-CD68 antibody. Also, since a marker used to distinguish the characteristics of the macrophages in the tissues was iNOS in the case of the inflammatory M1 macrophages and arginase 1 (Arg1) in the case of the anti-inflammatory M2 macrophages, the macrophages were stained with an anti-inflammatory marker Arg1 for macrophages in order to determine how many the phenotype of the macrophages in the heart was converted into the M2 type at the 2nd week after the onset of myocardial infarction.

[4] = test system: macrophage cell line RAW264.7; test: iNOS expression in LPS-stimulated macrophages, Western blotting; type: cell-based, mouse; settings: RAW264.7, LPS 100 ng/mL, BIO 0, 1, 2.5 and 5 μM, FIG. 5
Procedure: A mouse macrophage cell line RAW264.7 (Korean Cell Line Bank) was cultured in a DMEM broth supplemented with 10% fetal bovine serum, and lipopolysaccharide (LPS) was added at a concentration of 100 ng/mL to the culture broth to initiate inflammation of macrophages.

[5] = test system: cardiac fibroblasts (cFBs); test: BrdU cell proliferation assay, cardiac fibroblasts in cardiomyocyte/cardiac fibroblast co-culture; type: cell-based, rat
Procedure: as §3, §4, §5
Then, cells which were not stained with cardiac troponin I but stained with DAPI were regarded as cardiac fibroblasts and then counted.

GSK3β = molecular target: T1, GSK3β (Rattus norvegicus, UniProt P18266); test: p-GSK3β expression in cardiac fibroblasts, Western blotting; type: cell-based; settings: cardiac fibroblasts, 0, 0.25, 2.5 and 5 μM for 2 days, FIG. 7
T1 construct: endogenous in cells; host or cells: cardiac fibroblasts (primary culture)
Procedure: Since GSK3β was in an inert state when phosphorylated, an increase in expression level of p-GSK3β was determined using Western blotting in order to evaluate the inhibition of GSK3β.

[6] = echocardiography after two weeks

T1 sequence (P18266 whole entry): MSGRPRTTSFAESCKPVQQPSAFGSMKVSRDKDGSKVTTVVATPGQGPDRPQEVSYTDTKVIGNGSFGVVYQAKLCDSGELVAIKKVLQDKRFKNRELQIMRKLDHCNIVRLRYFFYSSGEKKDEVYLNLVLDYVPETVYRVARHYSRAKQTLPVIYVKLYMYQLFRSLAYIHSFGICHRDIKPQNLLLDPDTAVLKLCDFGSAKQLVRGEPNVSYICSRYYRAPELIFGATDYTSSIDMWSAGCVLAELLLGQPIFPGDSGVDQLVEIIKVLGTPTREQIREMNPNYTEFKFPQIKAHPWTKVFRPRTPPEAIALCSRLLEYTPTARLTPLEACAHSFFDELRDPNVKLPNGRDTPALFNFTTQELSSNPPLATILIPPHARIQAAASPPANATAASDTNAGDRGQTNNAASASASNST

Row | Compound | diastolic and systolic functions of the heart (MI animal model [1]; after two weeks, vs MI+saline) | EDV (MI animal model [1]; [6]) | EF; ejection fraction (MI animal model [1]; [6]) | ESV (MI animal model [1]; [6]) | FS; fractional shortening (MI animal model [1]; [6]) | IVSd; thickness of interventricular septum (diastole) (MI animal model [1]; [6]) | IVSs; thickness of interventricular septum (systole) (MI animal model [1]; [6]) | LVIDd; thickness of left ventricular internal dimension (diastole) (MI animal model [1]; [6]) | LVIDs; thickness of left ventricular internal dimension (systole) (MI animal model [1]; [6]) | LVPWd; left ventricle posterior wall thickness (diastole) (MI animal model [1]; [6]) | LVPWs; left ventricle posterior wall thickness (systole) (MI animal model [1]; [6]) | SV (MI animal model [1]; [6]) | BrdU (+) CM/total CM, proliferation rate of dividing cardiomyocytes (cardiomyocytes (CMs)) | fibrosis regions (blue), myocardial fibrosis (MI animal model [2]) | Arg1-expressing (anti-inflammatory M2 type) macrophages in the cardiac muscles (MI animal model [3]) | expression of iNOS (inflammatory marker) [4] | BrdU (+) cFB/total cFB, proliferation rate of dividing cardiac fibroblasts ([5]; co-culture, BIO 2.5 μM and 5 μM, FIG. 2) | expression level of p-GSK3β (inert form), GSK3β inhibition (GSK3β) | inhibitory effect on the proliferation of the cardiac fibroblasts ([5]; BIO 5 μM and 10 μM vs LiCl, same manner as Example 3, FIG. 8)
1 | O=C1Nc2cc(Br)ccc2/C1=C1/Nc2ccccc2/C1=N\O [BIO, (2′Z,3′E)-6-bromoindirubin-3′-oxime] | well preserved | 1.563 ± 0.308 | 41.313 ± 6.823 | 0.911 ± 0.251 | 18.262 ± 3.525 | 0.079 ± 0.013 | 0.084 ± 0.028 | 0.900 ± 0.066 | 0.736 ± 0.074 | 0.089 ± 0.023 | 0.115 ± 0.019 | 0.651 ± 0.116 | significantly increased | significantly reduced | prevailed | lowered in a concentration-dependent manner | significantly decreased |  | 
2 | [Cl-].[Li+] [LiCl, reference compound] |  |  |  |  |  |  |  |  |  |  |  |  |  |  |  |  |  | increased | not observed
